Patent US8580829B2 (Boehringer Ingelheim International GmbH, priority 2010, dated 2013)

Legend:
[1] = test system: human glomerulonephritis; details: clinical trial; cited from earlier work
[2] = test system: apoE/LDL-R double knockout mice; details: oral dosing, high-fat diet from 2 months of age to 6 months; cited from earlier work
[3] = test system: ApoE−/−xCD4dnTβRII mice; details: infusion, treated for four weeks; cited from earlier work
[4] = test system: biomarkers for myocardial infarction risk; details: clinical trial; cited from earlier work
[5] = molecular target: T1, recombinant human FLAP protein (Homo sapiens, UniProt P20292); experiment: FLAP binding assay (Scintillation Proximity Assay, displacement of [125I]L-691,831); details: recombinant human FLAP membranes, [125I]L-691,831 probe; read-out: FLAP SPA IC50
T1 construct: made in house; host or cells: Sf9 insect cells (100,000 x g membrane fraction)
T1 sequence (P20292 1-161): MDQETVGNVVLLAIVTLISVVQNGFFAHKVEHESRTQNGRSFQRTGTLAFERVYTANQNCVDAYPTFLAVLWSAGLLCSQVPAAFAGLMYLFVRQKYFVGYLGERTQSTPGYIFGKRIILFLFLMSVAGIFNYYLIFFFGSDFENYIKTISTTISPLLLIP
How it was run: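 WGA scintillation proximity beads were stirred 1 h with 5 μg of FLAP-containing membrane protein. The membranes came from baculovirus Sf9 cells, Dounce-lysed and spun to a 100,000×g pellet in buffer at pH 7.5.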

[6] = test system: synthesis of LTB4 in human whole blood; experiment: human whole blood LTB4 production inhibition assay; assay type: cell-based; details: Homo sapiens, heparinized human whole blood, calcimycin 20 μM; read-out: hWB LTB4 IC50
How it was run: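 LTB4 levels in plasma were measured by antibody-based HTRF after heparinized human whole blood, pretreated with compound (15 min, 37° C), was challenged with 20 μM calcimycin for 30 min at 37° C.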

SMILES | IC50 [5] | IC50 [6] | other results
CC(C)(C)Sc1c(CC(C)(C)C(=O)O)n(Cc2ccc(Cl)cc2)c2ccc(OCc3ccc4ccccc4n3)cc12 [MK-591] |  |  | effect on proteinuria [1]: reduce proteinuria
CC(C)c1ccc2c(c1)c(SC(C)(C)C)c(CC(C)(C)C(=O)O)n2Cc1ccc(Cl)cc1 [MK-886] |  |  | decrease in plaque coverage in the aorta [2]: 56%; decrease in plaque coverage in the aortic root [2]: 43%; decrease in plaque area in the aortic root [3]: ~40%
O=C(O)[C@@H](c1ccc(OCc2ccc3ccccc3n2)cc1)C1CCCC1 [DG-031] |  |  | effect on biomarkers for myocardial infarction risk [4]: dose-dependent suppression of several biomarkers
CC(C)(CO)n1cc(-c2nc(C3(c4ccc(-c5cnc(N)nc5)cc4)CCC3)no2)cn1 [Example 84, 2-[4-(3-{1-[4-(2-Amino-pyrimidin-5-yl)-phenyl]-cyclobutyl}-1,2,4-oxadiazol-5-yl)-pyrazol-1-yl]-2-methyl-propan-1-ol] | 4 nM | 160 nM | 
COc1cccc(-c2nc(C3(c4ccc(-c5cnc(N)nc5)cc4)CCC3)no2)c1 [Example 49, 5-(4-{1-[5-(3-Methoxy-phenyl)-1,2,4-oxadiazol-3-yl]-cyclobutyl}-phenyl)-pyrimidin-2-ylamine] | 3.7 nM | 660 nM | 
Nc1ncc(-c2ccc(C3(c4noc(-c5ccc(C(=O)N6CCC6)nc5)n4)CCC3)cc2)cn1 [Example 70, [5-(3-{1-[4-(2-Amino-pyrimidin-5-yl)-phenyl]-cyclobutyl}-1,2,4-oxadiazol-5-yl)-pyridin-2-yl]-azetidin-1-yl-methanone] | 3 nM | 220 nM | 

The remaining compounds from weak to strong by IC50 [5], led by results:

IC50 [5] | IC50 [6] | SMILES | other results
73 nM | 610 nM | Cn1cc(-c2nc(C3(c4ccc(-c5ccc(N)nn5)cc4)CCC3)no2)cn1 [Example 258, 6-(4-{1-[5-(1-Methyl-1H-pyrazol-4-yl)-[1,2,4]oxadiazol-3-yl]-cyclobutyl}-phenyl)-pyridazin-3-ylamine] | 
2.6 nM | 240 nM | NCCn1cc(-c2nc(C3(c4ccc(-c5cnc(N)nc5)cc4)CCC3)no2)cn1 [Example 227, 5-[4-(1-{5-[1-(2-Amino-ethyl)-1H-pyrazol-4-yl]-[1,2,4]oxadiazol-3-yl}-cyclobutyl)-phenyl]-pyrimidin-2-ylamine] | 
1.2 nM | 160 nM | Nc1ncc(-c2ccc(C3(c4noc(-c5cnn(CC(=O)NC6CCOCC6)c5)n4)CCC3)cc2)cn1 [Example 218, 2-[4-(3-{1-[4-(2-Amino-pyrimidin-5-yl)-phenyl]-cyclobutyl}-[1,2,4]oxadiazol-5-yl)-pyrazol-1-yl]-N-(tetrahydro-pyran-4-yl)-acetamide] | 
1 nM | 25 nM | CCNc1cnc(-c2nc(C3(c4ccc(-c5cnc(N)nc5)cc4)CCC3)no2)cn1 [Example 63, 5-(4-{1-[5-(5-Ethylamino-pyrazin-2-yl)-1,2,4-oxadiazol-3-yl]-cyclobutyl}-phenyl)-pyrimidin-2-ylamine] | 
